Reference: patent US20210047278A1, “E3 UBIQUITIN LIGASE AGONISTS, PHARMACEUTICAL COMPOSITIONS INCLUDING THE E3 UBIQUITIN LIGASE AGONISTS, RELATED METHODS OF USE” (FRED HUTCHINSON CANCER RESEARCH CENTER, priority 2018, published 2021)
Like-named read-outs stand apart in the source and are kept apart here.

Experiments:
Assay type in all cases: binding
FBW7^ARG+pCycE = target: T1, FBW7^ARG+pCycE (Homo sapiens, UniProt Q969H0, R505L); assay: FBW7^ARG-cyclin E agonist ALPHAscreen (primary PRUN, confirmation CRUN1, dose-response DRUN); conditions: for EC50 / Emax: DRUN dose-response; for Emax: relative to WT-FBW7+pCycE, read-out: FBW7 ACT Averaged Max % Response
T1 construct: GST (TEV site and flexible linker) (N, cleaved yes); made in house; host or cells: SF9 insect cells (baculovirus)
T1 sequence (Q969H0 64-707 R505L): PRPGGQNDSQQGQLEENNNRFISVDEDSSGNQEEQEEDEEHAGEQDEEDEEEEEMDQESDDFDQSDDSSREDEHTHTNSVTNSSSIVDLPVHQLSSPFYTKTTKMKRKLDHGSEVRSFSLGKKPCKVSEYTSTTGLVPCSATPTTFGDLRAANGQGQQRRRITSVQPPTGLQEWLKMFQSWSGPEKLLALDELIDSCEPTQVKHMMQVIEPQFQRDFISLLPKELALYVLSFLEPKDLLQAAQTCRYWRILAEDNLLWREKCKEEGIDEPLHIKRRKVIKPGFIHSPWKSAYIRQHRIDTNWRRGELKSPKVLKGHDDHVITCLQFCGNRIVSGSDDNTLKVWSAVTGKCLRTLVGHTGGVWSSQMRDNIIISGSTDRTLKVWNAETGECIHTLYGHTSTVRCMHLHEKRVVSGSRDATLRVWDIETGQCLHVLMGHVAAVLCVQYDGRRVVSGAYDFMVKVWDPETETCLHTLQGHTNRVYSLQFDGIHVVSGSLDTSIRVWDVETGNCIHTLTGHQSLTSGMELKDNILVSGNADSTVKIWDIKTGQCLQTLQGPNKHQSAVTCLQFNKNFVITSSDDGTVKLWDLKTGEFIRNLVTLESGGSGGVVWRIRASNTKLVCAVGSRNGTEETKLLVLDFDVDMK
T1 sequence (P63208 2-163 partner): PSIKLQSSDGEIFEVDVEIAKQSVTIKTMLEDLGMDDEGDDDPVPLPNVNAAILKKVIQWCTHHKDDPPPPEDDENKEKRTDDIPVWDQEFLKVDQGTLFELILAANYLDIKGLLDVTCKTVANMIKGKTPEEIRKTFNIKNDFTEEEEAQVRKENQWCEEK
Text: FBW7^ARG refers to a class of loss-of-function mutations of the of FBW7 ubiquitin ligase that target a key phosphate-binding arginine residue in the FBW7 substrate-binding domain. These mutations are commonly found in human cancers and promote tumorigenesis by impairing the interactions between FBW7 and its substrates, such as cyclin E and Myc. Described herein is a high throughput screen (HTS) to identify agonists, such as small molecules, that augment FBW7^ARG-substrate binding. In an embodiment, the HTS is based on the Amplified Luminescent Proximity Homogenous Assay (ALPHAscreen) because it detects protein-protein interactions with a large dynamic range. ALPHAscreen is a bead-based proximity assay wherein donor beads contain a photosensitizer, phthalocyanine, and acceptor beads contain thioxene, anthracene and rubrenein in sufficient quantities to generate a chemiluminescence/fluorescence reaction (FIG. 4A). Upon excitation with excitation illumination, such as light having a wavelength of 680 nm, of the donor beads, phthalocyanine converts ambient oxygen to singlet oxygen, which can diffuse approximately 200 nm within its 4-microsecond half-life. If an acceptor bead is in close proximity to an excited donor bead, singlet oxygen transfers its energy to the acceptor, resulting in emitted light at a broad bandwidth of −520-620 nm. The HTS-compatible FBW7/cyclin E ALPHAscreen assay described herein uses streptavidin coupled donor beads and Ni-chelate acceptor beads. In this assay, biotinylated cyclin E phosphopeptide and the His-tagged FBW7 mutant protein have high affinity for the donor and acceptor beads, respectively (FIG. 4B). A small molecule that is able to bridge the binding sites of the peptide and the mutant protein (or induce a conformational change that increases affinity of the protein for the peptide) will bring the donor and acceptor beads in close proximity to each other, resulting in an ALPHA signal. As designed, this assay format is a very sensitive, non-radioactive, homogenous “mix-and-read” format that is HT compatible in 384 and 1536 well formats.
In the 384-well screening assay, 10 uL of acceptor beads with 25 nM of the FBW7^ARG (RLFBW7) are dispensed to test wells; acceptor beads with 25 nM of the wt-FBW7 protein (WTFBW7) are dispensed to control wells. Test compounds are then added by pintool transfer and the mixture is incubated for 30 minutes. An additional 10 uL of donor beads with 25 nM cyclin E phosphopeptide is then added to all wells and the plate is incubated for 4 hours before the ALPHA signal is measured.
In preparation for large-scale screening, the assay was miniaturized to a 1536-well format. The miniaturized screen performed outstandingly in all respects. The screen was enhanced with respect to several parameters and assayed its performance using mutant FBW7 and wt-FBW7, as well as non-specific assay agonists. […] For example, the following Z′-scores/FBW7 concentrations were obtained: 6.25 nM/Z′=0.62, 12.5 nm/Z′=0.85, 25.0 nM/Z′=0.84.
1. Add 2.5 uL of RLFBW7/cycE˜P/Ni beads: Final [25 nM/25 nM/10 ug/ml].
2. Add 2.5 uL of WTFBW7/cycE˜P/Ni beads: Final [25 nM/25 nM/10 ug/ml].
4. Add 2.5 uL of SA beads to all wells Final [10 ug/ml],
5. Add 30 nL of compounds,
6. Read ALPHAscreen on Envision
The large-scale FBW7 agonist ALPHAscreen was completed using FBW7^ARG and a phosphorylated cyclin E (pCycE) degron peptide. Wt-FBW7+pCycE-peptide was the “high control”, and Wt-FBW7+unphosph. CycE peptide was the “low control”. The screen was performed on the 645,000-compound Scripps Diversity Library using 1536-well format and drug concentrations of 26.1 μM. An algorithm aided hit identification based on the average percent activation for all compounds and their standard deviation.
A confirmation assay of all 853 compounds in triplicate using a single concentration (26.1 μM). […]

FBW7^ARG (RLFBW7) alone = target: T2, FBW7^ARG (RLFBW7) alone (Homo sapiens, UniProt Q969H0, R505L); assay: Counterscreen 1 ALPHAscreen with FBW7^ARG alone (CSRUN1/DCSRUN1); conditions: dose-response counterscreen; for Emax: read-out: RLFBW7 ACT DCSRUN1 Averaged Max % Response
T2 construct: GST (TEV site and flexible linker) (N, cleaved yes); made in house; host or cells: SF9 insect cells (baculovirus)
T2 sequence (Q969H0 64-707 R505L): as the sequence (Q969H0 64-707 R505L) above
T2 sequence (P63208 2-163 partner): as the sequence (P63208 2-163 partner) above
Procedure: (§1) Studies in 384-well format were performed using the ENVISION system. Reagent concentrations (see FIG. 6A), order of addition, pH (see FIG. 6B), and reducing agent were altered with the goal of enhancing the dynamic range between wt-FBW7 (the positive control) and FBW7^ARG (FIG. 6 and not shown). Wt-FBW7 produced a signal 100× greater with phosphorylated cyclin E degron peptide compared with unphosphorylated, which represents the assay's maximum range (FIG. 6C). […] This assay thus detects the residual affinity of the FBW7^ARG-substrate interaction, which, as predicted, is stronger than wt-FBW7 protein with unphosphorylated cyclin E peptide. Concurrent with this primary assay, counter ALPHAscreens were developed which omitted either FBW7 or peptide (to eliminate hits that are general ALPHAscreen agonists), or used an irrelevant phosphopeptide (to eliminate compounds that simply augment binding to phosphopeptides). […]
(§2) The 77 hits were subjected to a dose-response assay in which each compound was tested in triplicate in a 10 point 3-fold dilutional series, to a maximum concentration of approximately 87 μM. Three screens were performed, using FBW7^ARG+pCycE (DRUN), FBW7^ARG (DCSRUN1), or pCycE alone (DCSRUN2). See TABLES 2, 3, and 4, respectively, and FIG. 10A. All of the assays performed extremely well, and threshold of 10% activation (relative to WT-FBW7+pCycE) was set as positive. […] Many hits fell into shared structure cluster ID groups, reinforcing the idea that they function as specific agonists (see below and TABLE 5).

pCycE alone = assay: Counterscreen 2 ALPHAscreen with cyclin E phosphopeptide alone (CSRUN2/DCSRUN2); conditions: for CyCEP ACT DCSRUN2 Averaged Max % Response: activation relative to WT-FBW7+pCycE, averaged maximum; for EC50: dose-response, triplicate, 10 point 3-fold dilutional series, read-out: CyCEP ACT DCSRUN2 Final EC50
Procedure: as §1, §2

[1] = raw curve fit, read-out: FBW7 ACT EC50 Curve Fit Raw, Molar
[2] = triplicate, 10 point 3-fold dilution, max approx. 87 μM, read-out: FBW7 ACT Final EC50, Molar
[3] = confirmation assay, triplicate, single concentration 26.1 μM, read-out: FBW7 ACT CRUN1 Avg % Response and Stdev
[4] = primary screen, 1536-well, 26.1 μM, FBW7^ARG + pCycE degron peptide, high control wt-FBW7+pCycE, read-out: FBW7 ACT PRUN % Response
[5] = raw curve fit, read-out: RLFBW7 ACT DCSRUN1 EC50 Curve Fit Raw
[6] = read-out: RLFBW7 ACT DCSRUN1 Final EC50

Row | Compound | EC50 (FBW7^ARG+pCycE; [1]) [µM] | Emax (FBW7^ARG+pCycE) [%] | EC50 (FBW7^ARG+pCycE; [2]) [µM] | activation at 26.1 µM (FBW7^ARG+pCycE; [3]) [%] | activation at 26.1 µM (FBW7^ARG+pCycE; [4]) [%] | EC50 (FBW7^ARG (RLFBW7) alone; [5]) [µM] | Emax (FBW7^ARG (RLFBW7) alone) [%] | EC50 (FBW7^ARG (RLFBW7) alone; [6]) [µM] | CyCEP ACT DCSRUN2 Averaged Max % Response (pCycE alone) [%] | EC50 (pCycE alone) [µM]
1 | CC(C)(C)OC(=O)N/N=C\c1cccs1 [SR-01000110457-1] | 1.4 | 6.03 | > 65.3 | 2.27 ± 0.05 | 5.59 | 0.823 | 1.17 | > 65.3 | 0.10 | > 65.3
2 | COCCOC(=O)C1=C(C)NC2=C(C(=O)CC(c3ccccc3)C2)C1c1ccc(OCc2ccccc2)cc1 (centres unmarked) [SR-01000422392-1] | 30.4 | 8.49 | > 51.3 | 5.36 ± 0.53 | 3.41 | 0.689 | 3 | > 51.3 | −57.8E−3 | > 51.3
3 | Cc1c(NC(=O)/C(=C\c2ccccc2)NC(=O)c2ccccc2)c(=O)n(-c2ccccc2)n1C [SR-01000422225-1] | 0.0401 | 6.91 | > 56.7 | 4.37 ± 0.72 | 1.87 | 0.619 | 0.11 | > 56.7 | 0.18 | > 56.7
4 | CCN(CC)c1ccc2cc(-c3nc(C)cs3)c(=O)oc2c1 [SR-01000312020-1] | 8.2 | 13.9 | > 65.3 | 5.16 ± 7.04 | 3.44 | 11.6 | 6.67 | > 65.3 | 0.77 | > 65.3
5 | CC1=C(C(=O)OC2CCCCC2)C(c2ccc(F)cc2)C2=C(CC(c3ccccc3)CC2=O)N1 (centres unmarked) [SR-01000420805-1] | 18.2 | 10 | > 50.8 | 6.77 ± 1.17 | 1.92 | 20.2 | 3.33 | > 50.8 | 0.22 | > 50.8
6 | CC(NC(=O)c1cnc2ccccn12)c1ccc(F)cc1 (centres unmarked) [SR-01000378746-1] | 0.0903 | 6.66 | > 65.3 | 3.47 ± 0.47 | 2.82 | 0.011 | 1.12 | > 65.3 | 0.23 | > 65.3

The next lines start with results.

Row | EC50 (FBW7^ARG+pCycE; [1]) [µM] | Emax (FBW7^ARG+pCycE) [%] | EC50 (FBW7^ARG+pCycE; [2]) [µM] | activation at 26.1 µM (FBW7^ARG+pCycE; [3]) [%] | activation at 26.1 µM (FBW7^ARG+pCycE; [4]) [%] | EC50 (FBW7^ARG (RLFBW7) alone; [5]) [µM] | Emax (FBW7^ARG (RLFBW7) alone) [%] | EC50 (FBW7^ARG (RLFBW7) alone; [6]) [µM] | Compound | CyCEP ACT DCSRUN2 Averaged Max % Response (pCycE alone) [%] | EC50 (pCycE alone) [µM]
7 | 16 | 9.85 | > 45.8 | 6.44 ± 0.56 | 1.86 | 24.1 | 4.29 | > 45.8 | CCC(C)OC(=O)C1=C(C)NC2=C(C(=O)CC(c3ccc(Cl)cc3)C2)C1c1cccc(Cl)c1 (centres unmarked) [SR-01000422821-1] | 0.13 | > 45.8
8 |  | 12 |  | 2.81 ± 0.04 | 2.16 |  | 3.64 |  | CCOC(=O)C1=CN(Cc2ccc(OC)cc2)C=C(C(=O)OCC)C1c1ccccc1OCc1ccccc1 [SR-01000587933-1] | 2.45 | > 44.2
9 | 18 | 22.9 | > 65.3 | 7.92 ± 0.35 | 2.77 | 47.6 | 0.67 | > 65.3 | CCSc1nnc(C2CCN(CC(=O)Nc3cccc4ccccc34)CC2)n1C [SR-01000349710-1] | 0.22 | > 65.3
10 | 2.3 | 6.52 | > 65.3 | 1.88 ± 0.38 | 2.02 | 0.0108 | 1.75 | > 65.3 | Cc1nc(C(C)NC(=O)c2cc(COc3ccc(F)cc3F)on2)cs1 (centres unmarked) [SR-01000168282-1] | 0.37 | > 65.3
11 | 21.5 | 8.52 | > 65.3 | 2.95 ± 0.31 | 3.93 | 4.1 | 1.56 | > 65.3 | CCN(Cc1ccccc1)C(=O)c1cc2c(=O)n3cccc(C)c3nc2n1C [SR-01000140943-1] | 0.79 | > 65.3
12 | 7.6 | 14.7 | > 66.4 | 2.18 ± 0.61 | 3.19 | 0.0177 | 0.24 | > 66.4 | CCS(=O)(=O)NCC(c1cccs1)S(=O)(=O)c1ccc(C)cc1 (centres unmarked) [SR-01000023127-1] | 0.21 | > 66.4
13 | 19.6 | 16.5 | > 54 | 2.31 ± 0.38 | 2.28 | 0.008 | 2.77 | > 54 | Cc1ccc(-c2nnc(N3CCN(C(=O)c4ccco4)CC3)c3ccccc23)cc1 [SR-01000505133-1] | 1.77 | > 54
14 | 7.3 | 10.1 | > 56.6 | 2.1 ± 0.29 | 2.07 | 7.5 | 2.56 | > 56.6 | COc1ccc(SCC(=O)NNC(=S)Nc2ccccc2)cc1 [SR-01000526835-1] | 2.80 | > 56.6
15 | 13.4 | 15.2 | > 65.3 | 4.47 ± 0.6 | 4.02 | 0.0182 | 0.23 | > 65.3 | CC(=O)Nc1ccc(NC(=O)Cn2cnc3c(cnn3C(C)(C)C)c2=O)cc1 [SR-01000137195-1] | 0.27 | > 65.3
